Laboratory results reported in ChEMBL document CHEMBL3045813, “Study of the inactivation of copper, zinc superoxide dismutase by tetracycline analogues” (Med Chem Res, 2008).
Active and inactive are the calls of the source. The calls are words filed in the database; no cut-off is given here.

Assays:
[1] = molecular target: Superoxide dismutase [Cu-Zn] (Homo sapiens) (UniProt P00441); test: Binding affinity to Superoxide dismutase [Cu-Zn] (unknown origin) at 3.86 10^-5 mol/l after 10 min by UV-Vis spectrophotometric analysis
[2] = molecular target: Superoxide dismutase [Cu-Zn] (Homo sapiens) (UniProt P00441); test: Binding affinity to Superoxide dismutase [Cu-Zn] (unknown origin) after 10 min at 37 degC by Stern-Volmer plot analysis
[3] = molecular target: Superoxide dismutase [Cu-Zn] (Homo sapiens) (UniProt P00441); test: Binding affinity to Superoxide dismutase [Cu-Zn] (unknown origin) after 10 min at 30 degC by Stern-Volmer plot analysis
[4] = molecular target: Superoxide dismutase [Cu-Zn] (Homo sapiens) (UniProt P00441); test: Binding affinity to Superoxide dismutase [Cu-Zn] (unknown origin) after 10 min at 20 degC by Stern-Volmer plot analysis
[5] = molecular target: Superoxide dismutase [Cu-Zn] (Homo sapiens) (UniProt P00441); test: Binding affinity to Superoxide dismutase [Cu-Zn] (unknown origin) at 3.86 10^-5 mol/l after 10 min by fluorometric analysis
[6] = species: Oryctolagus cuniculus; test: Inactivation of New Zealand white Oryctolagus cuniculus (rabbit) Superoxide dismutase [Cu-Zn] at 28.8 mg QD for 7 days measured after 7 days by pyrogallol-oxidation method; assay type: functional, organism-based
[7] = species: Oryctolagus cuniculus; test: Inactivation of New Zealand white Oryctolagus cuniculus (rabbit) Superoxide dismutase [Cu-Zn] at 28.8 mg QD for 7 days measured up to 7 days by pyrogallol-oxidation method; assay type: functional, organism-based

Sequence of Superoxide dismutase [Cu-Zn] (Homo sapiens) (P00441 whole entry): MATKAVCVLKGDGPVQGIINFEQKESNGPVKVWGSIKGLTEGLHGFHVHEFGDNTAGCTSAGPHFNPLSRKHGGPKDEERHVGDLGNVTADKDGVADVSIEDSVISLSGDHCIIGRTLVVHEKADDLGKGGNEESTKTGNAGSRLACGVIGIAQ

Activity [1]	K [2]	Kq [2]	K [3]	Kq [3]	K [4]	Kq [4]	Activity [5]	Activity [6]	Activity [7]	SMILES
Active	3.62 ×10⁴ L/mol	3.96 ×10¹² L/mol/s	8.93 ×10⁴ L/mol	4.22 ×10¹² L/mol/s	1.44 ×10⁵ L/mol	4.37 ×10¹² L/mol/s	Active			CN(C)[C@@H]1C(O)=C(C(N)=O)C(=O)[C@@]2(O)C(O)=C3C(=O)c4c(O)cccc4[C@@](C)(O)[C@H]3[C@H](O)[C@@H]12
Active		5.25 ×10¹² L/mol/s		5.3 ×10¹² L/mol/s		5.97 ×10¹² L/mol/s	Active	inactive	Active	CN(C)[C@@H]1C(O)=C(C(N)=O)C(=O)[C@@]2(O)C(O)=C3C(=O)c4c(O)cccc4[C@@](C)(O)[C@H]3C[C@@H]12
Active	1.34 ×10⁶ L/mol	6.42 ×10¹² L/mol/s	7.9 ×10⁶ L/mol	7.73 ×10¹² L/mol/s	6.73 ×10⁷ L/mol	1.01 ×10¹³ L/mol/s	Active			C[C@H]1c2cccc(O)c2C(=O)C2=C(O)[C@]3(O)C(=O)C(C(N)=O)=C(O)[C@@H](N(C)C)[C@@H]3[C@@H](O)[C@@H]21
